Data taken from patent publication US7141589B2, “Methods of inhibiting formation of vascular channels and methods of inhibiting proliferation” (The United States of America as represented by the …, priority 2001, dated 2006).
“And” between values parts separate entries of the source, which are not always exact repeats. Equal values may be shown once. Read-outs that look alike come from different tables or passages of the source.

Assays:
[1] = tested on: HUVEC; test: Tube formation on Matrigel by HUVEC; type: cell-based, human; conditions: 18 h; for concentration at which disruption of tube formation was manifest: HUVEC on Matrigel
Procedure: The formation of tubes on Matrigel by HUVEC was assessed as described (Kubota et al., J. Cell. Biol. 107(4): 1589–1598 (1988) and Ponce, In Vitro Matrigel Angiogenesis Assays. Totowa, N.J.: Humana Press Inc., 2000) with minor modifications as follows. Matrigel, 0.3 ml, was added to each well of a 24-well plate. After the Matrigel had gelled, HUVEC (5×10^4 cells), trypsinized from an exponentially growing culture, were added to each well in 0.2 ml of supplemented EBM-2. Test compounds were added in duplicate for each concentration and incubated at 37° C., 5% CO2, for 18 h. The medium was aspirated the next day, and the cells were fixed and stained with Diff-Quick Fix and staining solution II (Baxter Scientific Products, McGaw, Ill.).

[2] = tested on: HUVEC; test: Cell cycle analysis of HUVEC by flow cytometry; type: cell-based, human; conditions: for concentration that gave close to the maximum accumulation (>70%) of HUVEC in G1: 24 h of treatment
Procedure: (§1) Exponentially growing HUVEC were treated with the test compounds for 24 or 48 h, and processed for cell cycle analysis. After harvesting cells by trypsin treatment, isolation and staining of cell nuclei were performed using a CycleTEST™ PLUS DNA Reagent Kit (Becton & Dickinson, Rutherford, N.J.), according to the procedure recommended by the manufacturer. Briefly, nuclei were released from cells by treatment with a nonionic detergent and trypsin. The nuclear chromatin was stabilized with spermine. Propidium iodide was used to stain the DNA. Fluorescence histograms were generated with a FACSCalibur cytometer (Becton & Dickinson, Rutherford, N.J.), using CELLQuest software.

[3] = tested on: Siha cells; test: Inhibition of DNA synthesis in Siha cells; type: cell-based, human; conditions: log-phase Siha cells, 20 hours
Procedure: The test compounds were added at the indicated concentrations to exponentially growing HUVEC in 24-well plates (1×10^5 cells/well). At 10 h, [^3H]thymidine (1 μCi/well) was added. After an additional 2-h incubation, the cells were washed twice with PBS. DNA was precipitated with 5% trichloroacetic acid, washed once with 5% trichloroacetic acid, and dissolved in 0.2 ml of 0.2 N NaOH for measurement of radioactivity.
(§2) Siha cells were incubated for 20 hours with increasing concentrations of ciclopirox and then metabolically labeled to determine the ability to inhibit DNA synthesis, as described in Example 4, and the ability to inhibit deoxyhypusine hydroxylation, as described in Example 2. Cell cycle arrest was assessed by flow cytometry, as described in Example 5.

[4] = tested on: chick aortic arch rings; test: Chick aortic arch ring sprouting on Matrigel
Procedure: The assay was carried out as described previously for rat aortic rings (Gho et al., 1999), supra) with a slight modification. Briefly, the aortic arches were dissected from 14-day-old chick embryos, cleaned free of unwanted tissue, and cut into 0.8 mm slices. Each ring was transferred into the center of a well of a 24-well plate to which 1.5 μl of Matrigel had just been added. Ten μl of ice-cold Matrigel were added immediately to embed the ring. When the Matrigel was solidified, 500 μl of supplemented EBM-2 were added to each well. After addition of the test compounds in sextuplicate for each concentration, the plates were incubated at 37° C. with 5% CO2, and the degree of sprouting was assessed by a blinded observer after 48 and 72 h.

[5] = biological target: T1, deoxyhypusine hydroxylase (Homo sapiens, UniProt Q9BU89); test: Inhibition of deoxyhypusine hydroxylation in HUVEC ([3H]spermidine labeling); type: cell-based; conditions: for IC50: [3H]spermidine, 18-20 h
T1 construct: endogenous in cells; host or cells: HUVEC
T1 sequence (Q9BU89 1-302): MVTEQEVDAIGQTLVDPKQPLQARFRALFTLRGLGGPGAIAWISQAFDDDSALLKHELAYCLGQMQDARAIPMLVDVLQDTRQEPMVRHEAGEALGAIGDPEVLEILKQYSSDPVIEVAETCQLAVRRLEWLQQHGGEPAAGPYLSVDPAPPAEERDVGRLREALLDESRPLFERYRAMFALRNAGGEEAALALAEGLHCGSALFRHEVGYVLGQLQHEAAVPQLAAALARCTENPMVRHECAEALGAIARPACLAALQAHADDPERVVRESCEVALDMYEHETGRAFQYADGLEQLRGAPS
Procedure: (§3) Exponentially growing HUVEC (5×10^5 cells per 60-mm dish) were incubated with 5 μCi/ml of [1,8-^3H]spermidine for 18 h in the presence or absence of the indicated concentrations of inhibitors. The cells were washed with PBS and harvested by centrifugation at 300×g for 5 minutes. Cellular proteins were precipitated with 10% trichloroacetic acid containing 1 mM each of unlabeled spermidine, spermine and putrescine, and the precipitates were washed three times to remove radiolabeled free polyamines. The washed precipitates were hydrolyzed in 6 N HCl for 18 h at 115° C. Radiolabeled hypusine and deoxyhypusine released by acid hydrolysis were separated by ion exchange chromatography using an automated Dionex D-400 amino acid analyzer (Park et al., (1982), supra). The radioactivity in the hypusine and the deoxyhypusine fractions was measured using a Beckman liquid scintillation spectrometer.

[6] = biological target: T1, deoxyhypusine hydroxylase; test: Inhibition of deoxyhypusine hydroxylation in Siha cells; type: cell-based; conditions: 30 μM, 20 hours
Procedure: as §3, §2

[7] = tested on: prolyl 4-hydroxylase; test: Inhibition of collagen proline 4-hydroxylation in HUVEC ([3H]proline labeling); type: cell-based, human
Procedure: For the determination of collagen proline 4-hydroxylation, exponentially growing HUVEC were plated in 60-mm dishes. After cell attachment, ascorbic acid (50 μg/ml), β-aminopropionitrile (30 μg/ml), and the test compounds were added along with [^3H]proline (20 μCi/ml). After an 18-h incubation, labeled proteins (including collagen) released into the medium were precipitated with 10% trichloroacetic acid. After washing three times with 5% trichloroacetic acid solution, the precipitated proteins were hydrolyzed in 6N HCl at 115° C. for 24 h. Unlabeled hydroxyproline was added to each sample. Radioactive proline and hydroxyproline were separated by thin layer chromatography on silica gel-coated glass plates in 75% phenol (phenol:water, 75:25 w/w) containing 0.2 mg/ml NaCN (Brenner et al., Dünnschict-Chromatographie von Aminosäuren. Experientia 16: 378–383 (1960). The positions of proline and hydroxyproline were visualized by the ninhydrin reaction. Hydroxyproline separated from proline with Rf values of 0.45 and 0.58, respectively. The silica gel in the hydroxyproline and proline areas was scraped off, eluted with 0.5 ml of water, and the radioactivity in each spot was counted. The degree of proline hydroxylation was estimated from the ratio of [^3H]hydroxyproline to the total radioactivity in [^3H]proline plus [^3H]hydroxyproline.

[8] = tested on: HUVEC; test: Inhibition of DNA synthesis in HUVEC ([3H]thymidine incorporation); type: cell-based; conditions: Homo sapiens, read-out: IC50 for inhibition of DNA synthesis
Procedure: The test compounds were added at the indicated concentrations to exponentially growing HUVEC in 24-well plates (1×10^5 cells/well). […] DNA was precipitated with 5% trichloroacetic acid, washed once with 5% trichloroacetic acid, and dissolved in 0.2 ml of 0.2 N NaOH for measurement of radioactivity.

[9] = tested on: Siha cells; test: Cell cycle arrest in Siha cells by flow cytometry; type: cell-based, human; conditions: 30 μm
Procedure: as §1, §2

For `Cc1cc(C2CCCCC2)n(O)c(=O)c1` [ciclopirox], the “concentration at which disruption of tube formation was manifest” value [1] was 10 to 20 µM, the “concentration that gave close to the maximum accumulation (>70%) of HUVEC in G1” value [2] was 30 µM and the “concentration giving cell cycle arrest similar to that at 24 h with 30 μM” value ([2]; 48 h treatment) was 10 µM. For the same compound, the “inhibition of DNA synthesis” value [3] was “sharp, dose-dependent inhibition”, the “relative inhibition of sprouting” value ([4]; 72 h) was “the most inhibitory” and the “concentration above which no [3H]hypusine was detectable (complete inhibition of deoxyhypusine hydroxylase)” value ([5]; 20 h) was greater than 10 µM. For the same compound, the “concentration at which only [3H]hypusine but no [3H]deoxyhypusine was detected (no inhibition)” value ([5]; 20 h) was no more than 2.5 µM, the IC50 [5] was ~5 µM and 5 µM and the “suppression of deoxyhypusine hydroxylation” value [6] was “totally suppressed”. The “inhibition of proline hydroxylation” value ([7]; 10 μM) was 63%, the IC50 ([8]; 18 h, 18 h of treatment) was roughly 10 µM and the “cell cycle effect” value [9] was “arrest in late G1”.

`CC(=O)N(O)CCCCCNC(=O)CCC(=O)N(O)CCCCCNC(=O)CCC(=O)N(O)CCCCCN` [deferoxamine] was tested, and the “concentration that gave close to the maximum accumulation (>70%) of HUVEC in G1” value [2] was 50 µM, the IC50 [5] was 16 µM and ~16 µM and the “inhibition of proline hydroxylation” value ([7]; 100 μM) was 40%. The IC50 ([8]; 18 h of treatment) was 16 µM.

With `Cc1c(O)c(=O)ccn1C` [deferiprone, 1,2-dimethyl-3-hydroxypyrid-4-one] the “inhibition of tube formation” value ([1]; 200 μM) was “Modest inhibition”, the “concentration that gave close to the maximum accumulation (>70%) of HUVEC in G1” value [2] was 200 µM and the “concentration showing a strong inhibition of sprouting” value ([4]; 72 h of incubation) was 400 µM. It also gave an IC50 [5] of 117 µM and an IC50 ([8]; 18 h, 18 h of treatment) of 130 µM.

`c1ccc(-c2ccccn2)nc1` [2,2′-dipyridyl] was tested, and the “concentration at which disruption of tube formation was manifest” value [1] was 100 µM, the “concentration that gave close to the maximum accumulation (>70%) of HUVEC in G1” value [2] was 100 µM and the IC50 [5] was 26 µM. For the same compound, the IC50 ([8]; 18 h of treatment) was 55 µM.

For `NC(Cn1ccc(=O)c(O)c1)C(=O)O` (stereo not shown) [mimosine], the “impairment of tube formation” value ([1]; 400 μM) was “little sign of impairment”, the “increase in G1” value ([2]; 400 μM, 24 h incubation) was “did not cause a significant increase in G1” and the “inhibition of sprout growth” value ([4]; 400 μM, 72 h) was “moderate inhibition”. For the same compound, the IC50 [5] was 191 µM, the “inhibition of proline hydroxylation” value ([7]; 400 μM) was “only minor inhibition” and the IC50 ([8]; 18 h) was 455 µM.
